What was measured:
[1] = tested on: 6 Hz 32 mA Epilepsy Model (electrically induced psychomotor seizure); assay: Minimal clonic seizure (6 Hz, 32 mA) test; assay type: in vivo, Mouse; settings: for animals protected/animals tested: 6 Hz 32 mA, Mouse, IP; for ED50: Mus musculus, ip, 6 Hz 32 mA dose response (Test 7-2), mice
Excerpt: (§1) 1. Minimal Clonic Seizure (6 Hz, 32 mA or 44 mA) Test
(§2) Test compounds are pre-administered to mice via i.p. injection. At varying times, individual mice (four per time point) are challenged with sufficient current delivered through corneal electrodes to elicit a psychomotor seizure in 97% of animals (32 mA or 44 mA for 3 s) (Toman J E P, Everett G M, Richards R K: The Search for New Drugs against Epilepsy. Texas Reports on Biology and Medicine 1952; 10:96-104). Untreated mice will display seizures characterized by a minimal clonic phase followed by stereotyped, automatistic behaviors described originally as being similar to the aura of human patients with partial seizures. Animals not displaying this behavior are considered protected. The test compounds are evaluated quantitatively by measuring the responses at varying doses at a determined time of peak effect (TPE).

[2] = tested on: MES Model (maximal electroshock seizure); assay: Maximal electroshock seizure (MES) test; assay type: in vivo; settings: Mouse, IP
Procedure: 3. Maximal Electroshock Seizure (MES) Test
MES test is performed as in the Minimal Clonic Seizure (6 Hz) test, but the MES test utilizes a current of 50 mA (mice) or 150 mA (rats), frequency of 50-60 Hz, and a stimulation time of 0.2 seconds. Upon stimulation, untreated test subjects display immediate severe tonic seizure (including maximal extension of legs) and the body becomes stiffened for roughly 10-15 seconds. Next, clonic seizures start (including shaking of body and paddling movements of the hind limbs) and may last 20-30 seconds (Castel-Branco M M, Alves G L, Figueiredo I V, Falcao A C, Caramona M M: The Maximal Electroshock Seizure (MES) Model in the Preclinical Assessment of Potential New Antiepileptic Drugs. Methods and Findings in Experimental and Clinical Pharmacology 2009; 31:101-06). Test subjects that display reduced or eliminated symptoms of MES-type seizures during and/or after stimulation are considered protected.

[3] = tested on: Corneal Kindled Mouse (Stage 5 seizures); assay: Corneal kindled mouse (focal seizures) - Test 26; assay type: in vivo; settings: IP, TPE 0.5 hrs
Excerpt: 2. Corneal Kindling (Focal Seizures)
Mice are kindled electrically with 3 sec stimulation, 8 mA, 60 Hz, and corneal electrodes to a criterion of 10 consecutive Stage 5 seizures (facial clonus and head nodding progressing to forelimb clonus, and finally rearing and falling accompanied by a generalized clonic seizure as described by Racine (Racine R J: Modification of Seizure Activity by Electrical Stimulation. II. Motor Seizure. Electroen Clin Neuro 1972; 32:281-94). Stage 5 is generally reached after twice daily stimulation for 8 days. With continued stimulation once a day, animals usually progress to a reproducible Stage 5 after 10-14 additional days. At least 72 hours after the mice have been kindled, the test substance is administered either intraperitoneal (i.p.) or per os (p.o.) and, at the previously determined TPE, each animal is given the electrical stimulus indicated above. Following stimulation, the animals are observed for the presence or absence of the rearing and falling criteria of a Stage 5 seizure. Treated animals not displaying a Stage 3, 4, or 5 seizure are considered protected. The dose of the test substance is varied between the limits of 0 and 100% efficacy, and the ED50 and 95% confidence intervals calculated by probit analysis. Mean values and the S.E.M. are calculated for the length of clonus and seizure duration and p values are determined by the Student's t-test.

[4] = tested on: minimal muscular or neurological impairment (rotorod); assay: Acute toxicity - minimal motor impairment (rotorod); assay type: in vivo; settings: for Toxicity Ratio: Mouse
Excerpt: 4. Acute Toxicity-Minimal Motor Impairment
To assess a compound's undesirable side effects (toxicity), animals are monitored for overt signs of impaired neurological or muscular function. In mice, the rotorod (Dunham N W, Miya T S: A Note on a Simple Apparatus for Detecting Neurological Deficit in Rats and Mice. Journal of the American Pharmaceutical Association 1957; 46:208-09), procedure is used to disclose minimal muscular or neurological impairment. When a mouse is placed on a rod that rotates at a speed of 6 rpm, the animal can maintain its equilibrium for long periods of time. The animal is considered toxic if it falls off this rotating rod three times during a 1-min period. In rats, minimal motor deficit is indicated by ataxia, which is manifested by an abnormal, uncoordinated gait. Rats used for evaluating toxicity are examined before the test drug is administered, since individual animals may have peculiarities in gait, equilibrium, placing response, etc., which might be attributed erroneously to the test substance.

[5] = tested on: 6 Hz 32 mA Epilepsy Model (electrically induced psychomotor seizure); assay: Minimal clonic seizure (6 Hz, 32 mA) test; assay type: in vivo; settings: Mouse, Oral, 100 mg/kg, TPE N/A
[6] = tested on: 6 Hz 44 mA Epilepsy Model (electrically induced psychomotor seizure); assay: Minimal clonic seizure (6 Hz, 44 mA) test; assay type: in vivo; settings: Mouse, IP, 100 mg/kg
Excerpt: as §1, §2

[7] = MES screen table, IP, 100 mg/kg, TPT N/A
[8] = Test 7-1 table, IP, 100 mg/kg, TPT N/A
[9] = Test 7-1 table, IP, 30 mg/kg, TPT NA
[10] = Test 7-1 table, IP, 300 mg/kg, TPT 0.5 hrs
[11] = Test 7-3 table, IP, 100 mg/kg, TPT N/A

What does the source list for `Cc1cc(Br)c(C(C)C)cc1O` [Ex. 9, 4-bromo-5-isopropyl-2-methyl phenol]?
animals protected/animals tested ([1]; 100 mg/kg, TPE 0.5 hrs): 3/4; ED50 ([1]; TPE 0.5 hrs): 19 mg/kg; animals protected/animals tested ([2]; 100 mg/kg, TPE 0.25 hrs): 1/4; Average Seizure Score ([3]; 19 mg/kg): 3.75; Seizure Ratio ([3]; 19 mg/kg): 1/4; Toxicity Ratio [4, 7]: 0/8; Toxicity Ratio [4, 8]: 0/4; Toxicity Ratio ([4]; Test 7-1 table, Oral, 100 mg/kg, TPT N/A): 0/4; TD50 at 6 hrs ([4]; mouse, in vivo, intraperitoneal, Test 7-2 table, TPT 6 hrs): 398 mg/kg; animals protected/animals tested [5]: 0/4

With `Cc1cc(Br)c(C(C)(C)C)cc1O` [Ex. 25, 4-Bromo-5-tert-butyl-2-methyl-phenol] as the compound, how does the animals protected/animals tested ([1]; 30 mg/kg, TPE 0.5 hrs) read?
Its animals protected/animals tested is 2/4.

And the animals protected/animals tested ([1]; 100 mg/kg, TPE 0.5 hrs)?
Its animals protected/animals tested is 2/4.

What about the animals protected/animals tested ([1]; 300 mg/kg, TPE 2 hrs) of the same compound?
Its animals protected/animals tested is 4/4.

What about the “Toxicity Ratio” value [4, 9] of the same compound?
Its value is 0/8.

What about the “Toxicity Ratio” value [4, 8] of the same compound?
Its value is 0/8.

What about the “Toxicity Ratio” value [4, 10] of the same compound?
Its value is 4/8.

Which results are given for `CCc1cc(Br)c(C(C)C)cc1O` [Ex. 64, 4-Bromo-2-ethyl-5-isopropyl-phenol]?
animals protected/animals tested ([1]; 30 mg/kg, TPE 0.5 hrs): 1/4; animals protected/animals tested ([1]; 100 mg/kg, TPE 0.5 hrs): 3/4; animals protected/animals tested ([1]; 300 mg/kg, TPE 0.5 hrs): 4/4; animals protected/animals tested ([2]; 30 mg/kg, TPE NA): 0/4; animals protected/animals tested ([2]; 100 mg/kg, TPE 0.5 hrs): 1/4; animals protected/animals tested ([2]; 300 mg/kg, TPE 0.5 hrs): 2/4; Toxicity Ratio ([4]; MES screen table, IP, 30 mg/kg, TPT NA): 0/8; Toxicity Ratio [4, 7]: 0/8; Toxicity Ratio ([4]; MES screen table, IP, 300 mg/kg, TPT 0.5 hrs): 6/8; Toxicity Ratio [4, 9]: 0/8; Toxicity Ratio [4, 8]: 0/8; Toxicity Ratio [4, 10]: 6/8; Toxicity Ratio [4, 11]: 0/4; animals protected/animals tested ([6]; TPE 0.25 hrs): 1/4

Which animals protected/animals tested ([1]; 10 mg/kg, TPE 0.5 hrs) does the source give for `CCCc1ccc(C(C)C)cc1O` [Ex. 95, 5-Isopropyl-2-propyl-phenol] here?
Its animals protected/animals tested is 3/4.

What about the animals protected/animals tested ([1]; 30 mg/kg, TPE 0.5 hrs) of the same compound?
The animals protected/animals tested was 0/4.

And the animals protected/animals tested ([1]; 300 mg/kg, TPE 0.5 hrs)?
Its animals protected/animals tested is 3/4.

And the animals protected/animals tested ([2]; 30 mg/kg, TPE 0.5 hrs)?
Its animals protected/animals tested is 0/4.

What about the animals protected/animals tested ([2]; 100 mg/kg, TPE 0.5 hrs) of the same compound?
Its animals protected/animals tested is 0/4.

And the animals protected/animals tested ([2]; 300 mg/kg, TPE 0.5 hrs)?
Its animals protected/animals tested is 1/4.

And the “Toxicity Ratio” value ([4]; Test 7-1 table, IP, 10 mg/kg, TPT 0.5 hrs)?
The value was 1/8.

And the “Toxicity Ratio” value ([4]; Test 7-1 table, IP, 30 mg/kg, TPT 0.5 hrs)?
The value was 0/8.

What about the “Toxicity Ratio” value [4, 10] of the same compound?
The value was 3/8.

Which results are given for `Cc1cc(O)c(C(C)C)cc1Br` [Ex. 132, 4-Bromo-2-isopropyl-5-methyl-phenol]?
animals protected/animals tested ([1]; 100 mg/kg, TPE 0.5 hrs): 3/4; ED50 ([1]; TPE 0.5 hrs): 28 mg/kg; animals protected/animals tested ([2]; 100 mg/kg, TPE 1 hrs): 2/4; Average Seizure Score ([3]; 28 mg/kg): 4.5; Seizure Ratio ([3]; 28 mg/kg): 1/4; Toxicity Ratio ([4]; MES screen table, IP, 100 mg/kg, TPT 0.5 hrs): 1/8; Toxicity Ratio [4, 8]: 0/4; Toxicity Ratio [4, 11]: 0/4; TD50 at 4 hrs ([4]; mouse, in vivo, intraperitoneal, Test 7-2 table, TPT 4 hrs): > 200 mg/kg; animals protected/animals tested ([6]; TPE 2 hrs): 2/4

How did the animals protected/animals tested ([1]; 100 mg/kg, TPE 0.5 hrs) turn out when `CC(C)c1cc(O)c(C(C)(C)C)cc1Br` [Ex. 204, 4-Bromo-2-tert-butyl-5-isopropyl-phenol] was run?
Its animals protected/animals tested is 2/4.

What about the animals protected/animals tested ([2]; 100 mg/kg, TPE 0.25 hrs) of the same compound?
The animals protected/animals tested was 1/4.

And the “Toxicity Ratio” value [4, 7]?
The value was 0/8.

And the “Toxicity Ratio” value [4, 8]?
Its value is 0/4.

Reference: patent US9630896B2, “2,5-dialkyl-4-H/halo/ether-phenol compounds” (Tansna Therapeutics Inc, priority 2013, dated 2017)
